{
  "source": "ChEMBL document CHEMBL6078695",
  "about": "“Design, synthesis, and biological evaluations of 5-aryl-pyrazole-3-carboxamide derivatives as selective CB2 receptor agonists for the treatment of colitis” (Eur J Med Chem, 2025)",
  "note": "Activity calls are given as the source filed them. The calls are words filed in the database; no cut-off is given here.",
  "data": [
    {"molecular_target": "T1, Cannabinoid receptor 1 (Homo sapiens, UniProt P21554)", "T1 sequence (P21554 whole entry)": "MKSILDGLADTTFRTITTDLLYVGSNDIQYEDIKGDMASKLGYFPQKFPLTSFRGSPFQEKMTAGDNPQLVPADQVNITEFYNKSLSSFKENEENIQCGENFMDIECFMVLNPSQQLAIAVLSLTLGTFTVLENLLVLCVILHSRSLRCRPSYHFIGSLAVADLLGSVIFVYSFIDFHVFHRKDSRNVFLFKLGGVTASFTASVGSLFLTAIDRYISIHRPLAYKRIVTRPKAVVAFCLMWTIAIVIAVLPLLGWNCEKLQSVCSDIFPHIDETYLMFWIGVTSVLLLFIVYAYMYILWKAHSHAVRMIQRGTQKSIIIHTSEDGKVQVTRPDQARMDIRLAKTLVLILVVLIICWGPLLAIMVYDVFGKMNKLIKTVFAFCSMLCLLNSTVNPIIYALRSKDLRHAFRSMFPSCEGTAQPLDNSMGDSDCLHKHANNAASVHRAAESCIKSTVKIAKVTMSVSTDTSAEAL", "experiment": "Agonist activity at human CB1 receptor expressed in CHO-K1 cells co-transfected with human Galpha16 assessed as intracellular calcium flux", "type": "functional, cell-based", "settings": "not given", "units": {"EC50": "µM"}, "values": [
      {"smiles": "CCCCCCn1nc(C(=O)NC(C)(C)CO)cc1-c1cccs1", "EC50": "> 100"},
      {"smiles": "CCCCCn1nc(C(=O)NC(C)(C)CO)cc1-c1cccn1C", "EC50": "> 100"},
      {"smiles": "CCCCCn1nc(C(=O)NC(C)(C)CO)cc1-c1cc(C)cs1", "EC50": "> 100"},
      {"smiles": "CCCCCn1nc(-c2cccs2)cc1C(=O)NC(C)(C)CO", "EC50": "> 100"},
      {"smiles": "CC(C)(CO)NC(=O)c1cc(-c2cccs2)n(CC2CC2)n1", "EC50": "> 100"},
      {"smiles": "COCCn1nc(C(=O)NC(C)(C)CO)cc1-c1cccs1", "EC50": "> 100"},
      {"smiles": "CCCCCn1nc(C(=O)NC(C)(C)CO)cc1-c1sccc1Cl", "EC50": "> 100"},
      {"smiles": "CCCCCn1nc(-c2cccn2C)cc1C(=O)NC(C)(C)CO", "EC50": "> 100"},
      {"smiles": "CCCCCn1nc(C(=O)NC(C)(C)CO)cc1-c1nccn1C", "EC50": "> 100"},
      {"smiles": "CCCCCn1nc(C(=O)NC(C)(C)CO)cc1-c1nccs1", "EC50": "> 100"},
      {"smiles": "CCCCn1nc(C(=O)NC(C)(C)CO)cc1-c1cncs1", "EC50": "> 100"},
      {"smiles": "CCCCCn1nc(C(=O)NC(C)(C)CO)cc1-c1ccc(C)s1", "EC50": "> 100"},
      {"smiles": "CCCCn1nc(C(=O)NC(C)(C)CO)cc1-c1ccn(C)c1", "EC50": "> 100"},
      {"smiles": "CCCCCn1nc(-c2cccn2CC)cc1C(=O)NC(C)(C)CO", "EC50": "> 100"},
      {"smiles": "CCCCCn1nc(-c2ccco2)cc1C(=O)NC(C)(C)CO", "EC50": "> 100"}
    ]},
    {"molecular_target": "T2, Cannabinoid receptor 2 (Homo sapiens, UniProt P34972)", "T2 sequence (P34972 whole entry)": "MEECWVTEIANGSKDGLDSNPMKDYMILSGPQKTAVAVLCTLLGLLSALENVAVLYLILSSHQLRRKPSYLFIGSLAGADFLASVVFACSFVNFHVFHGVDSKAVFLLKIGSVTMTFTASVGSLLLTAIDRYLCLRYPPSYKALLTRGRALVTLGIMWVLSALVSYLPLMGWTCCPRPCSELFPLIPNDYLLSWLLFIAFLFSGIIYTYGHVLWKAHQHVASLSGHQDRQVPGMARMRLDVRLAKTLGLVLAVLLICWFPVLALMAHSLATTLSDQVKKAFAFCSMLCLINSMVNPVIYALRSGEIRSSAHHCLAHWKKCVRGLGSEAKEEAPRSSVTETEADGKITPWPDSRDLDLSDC", "experiment": "Agonist activity at human CB2 receptor expressed in CHO-K1 cells co-transfected with human Galpha16 assessed as intracellular calcium flux", "type": "functional, cell-based", "settings": "not given", "units": {"EC50": "µM"}, "values": [
      {"smiles": "CCCCCCn1nc(C(=O)NC(C)(C)CO)cc1-c1cccs1", "EC50": 0.0195},
      {"smiles": "CCCCCn1nc(C(=O)NC(C)(C)CO)cc1-c1cccn1C", "EC50": 0.0479},
      {"smiles": "CCCCCn1nc(C(=O)NC(C)(C)CO)cc1-c1cc(C)cs1", "EC50": "> 100"},
      {"smiles": "CCCCCn1nc(-c2cccs2)cc1C(=O)NC(C)(C)CO", "EC50": "> 100"},
      {"smiles": "CC(C)(CO)NC(=O)c1cc(-c2cccs2)n(CC2CC2)n1", "EC50": 0.174},
      {"smiles": "COCCn1nc(C(=O)NC(C)(C)CO)cc1-c1cccs1", "EC50": 0.128},
      {"smiles": "CCCCCn1nc(C(=O)NC(C)(C)CO)cc1-c1sccc1Cl", "EC50": 0.0215},
      {"smiles": "CCCCCn1nc(-c2cccn2C)cc1C(=O)NC(C)(C)CO", "EC50": "> 100"},
      {"smiles": "CCCCCn1nc(C(=O)NC(C)(C)CO)cc1-c1nccn1C", "EC50": "> 100"},
      {"smiles": "CCCCCn1nc(C(=O)NC(C)(C)CO)cc1-c1nccs1", "EC50": "> 100"},
      {"smiles": "CCCCn1nc(C(=O)NC(C)(C)CO)cc1-c1cncs1", "EC50": "> 100"},
      {"smiles": "CCCCCn1nc(C(=O)NC(C)(C)CO)cc1-c1ccc(C)s1", "EC50": "> 100"},
      {"smiles": "CCCCn1nc(C(=O)NC(C)(C)CO)cc1-c1ccn(C)c1", "EC50": "> 100"},
      {"smiles": "COc1ccc(C(=O)c2c(C)n(CCN3CCOCC3)c3cc(I)ccc23)cc1", "EC50": "> 100"},
      {"smiles": "CCCCCn1nc(-c2cccn2CC)cc1C(=O)NC(C)(C)CO", "EC50": "> 100"},
      {"smiles": "CCCCCn1nc(-c2ccco2)cc1C(=O)NC(C)(C)CO", "EC50": "> 100"}
    ]},
    {"molecular_target": "T2, Cannabinoid receptor 2", "experiment": "Agonist activity at human CB2 receptor expressed in CHO-K1 cells co-transfected with human Galpha16 assessed as intracellular calcium flux at 10 uM relative to control", "type": "functional, cell-based", "settings": "filed as agonist", "units": {"Emax": "%"}, "values": [
      {"smiles": "CCCCCCn1nc(C(=O)NC(C)(C)CO)cc1-c1cccs1", "Emax": 72},
      {"smiles": "CCCCCn1nc(C(=O)NC(C)(C)CO)cc1-c1cccn1C", "Emax": 90},
      {"smiles": "CC(C)(CO)NC(=O)c1cc(-c2cccs2)n(CC2CC2)n1", "Emax": 55},
      {"smiles": "COCCn1nc(C(=O)NC(C)(C)CO)cc1-c1cccs1", "Emax": 46},
      {"smiles": "CCCCCn1nc(C(=O)NC(C)(C)CO)cc1-c1sccc1Cl", "Emax": 76}
    ]},
    {"molecular_target": "T2, Cannabinoid receptor 2", "experiment": "Antagonist activity at human CB2 receptor expressed in CHO-K1 cells co-transfected with human Galpha16 assessed as intracellular calcium flux", "type": "functional, cell-based", "settings": "not given", "units": {"IC50": "µM"}, "values": [
      {"smiles": "CCCCCCn1nc(C(=O)NC(C)(C)CO)cc1-c1cccs1", "IC50": "> 100"},
      {"smiles": "CCCCCn1nc(C(=O)NC(C)(C)CO)cc1-c1cc(C)cs1", "IC50": 0.0685},
      {"smiles": "CC(C)(CO)NC(=O)c1cc(-c2cccs2)n(CC2CC2)n1", "IC50": "> 100"},
      {"smiles": "COCCn1nc(C(=O)NC(C)(C)CO)cc1-c1cccs1", "IC50": "> 100"},
      {"smiles": "CCCCCn1nc(C(=O)NC(C)(C)CO)cc1-c1sccc1Cl", "IC50": "> 100"},
      {"smiles": "CCCCCn1nc(C(=O)NC(C)(C)CO)cc1-c1nccn1C", "IC50": "> 100"},
      {"smiles": "CCCCCn1nc(C(=O)NC(C)(C)CO)cc1-c1nccs1", "IC50": "> 100"},
      {"smiles": "CCCCn1nc(C(=O)NC(C)(C)CO)cc1-c1cncs1", "IC50": "> 100"},
      {"smiles": "CCCCCn1nc(C(=O)NC(C)(C)CO)cc1-c1ccc(C)s1", "IC50": 0.0282},
      {"smiles": "CCCCn1nc(C(=O)NC(C)(C)CO)cc1-c1ccn(C)c1", "IC50": "> 100"},
      {"smiles": "COc1ccc(C(=O)c2c(C)n(CCN3CCOCC3)c3cc(I)ccc23)cc1", "IC50": 0.179}
    ]},
    {"molecular_target": "T1, Cannabinoid receptor 1", "experiment": "Antagonist activity at human CB1 receptor expressed in CHO-K1 cells co-transfected with human Galpha16 assessed as intracellular calcium flux", "type": "functional, cell-based", "settings": "not given", "units": {"IC50": "µM"}, "values": [
      {"smiles": "CCCCCCn1nc(C(=O)NC(C)(C)CO)cc1-c1cccs1", "IC50": "> 100"},
      {"smiles": "CCCCCn1nc(C(=O)NC(C)(C)CO)cc1-c1cccn1C", "IC50": "> 100"},
      {"smiles": "CCCCCn1nc(C(=O)NC(C)(C)CO)cc1-c1cc(C)cs1", "IC50": "> 100"},
      {"smiles": "CCCCCn1nc(-c2cccs2)cc1C(=O)NC(C)(C)CO", "IC50": "> 100"},
      {"smiles": "CC(C)(CO)NC(=O)c1cc(-c2cccs2)n(CC2CC2)n1", "IC50": "> 100"},
      {"smiles": "COCCn1nc(C(=O)NC(C)(C)CO)cc1-c1cccs1", "IC50": "> 100"},
      {"smiles": "CCCCCn1nc(C(=O)NC(C)(C)CO)cc1-c1sccc1Cl", "IC50": "> 100"},
      {"smiles": "CCCCCn1nc(-c2cccn2C)cc1C(=O)NC(C)(C)CO", "IC50": "> 100"},
      {"smiles": "CCCCCn1nc(C(=O)NC(C)(C)CO)cc1-c1nccn1C", "IC50": "> 100"},
      {"smiles": "CCCCCn1nc(C(=O)NC(C)(C)CO)cc1-c1nccs1", "IC50": "> 100"},
      {"smiles": "CCCCn1nc(C(=O)NC(C)(C)CO)cc1-c1cncs1", "IC50": "> 100"},
      {"smiles": "CCCCCn1nc(C(=O)NC(C)(C)CO)cc1-c1ccc(C)s1", "IC50": "> 100"},
      {"smiles": "CCCCn1nc(C(=O)NC(C)(C)CO)cc1-c1ccn(C)c1", "IC50": "> 100"},
      {"smiles": "CCCCCn1nc(-c2cccn2CC)cc1C(=O)NC(C)(C)CO", "IC50": "> 100"},
      {"smiles": "CCCCCn1nc(-c2ccco2)cc1C(=O)NC(C)(C)CO", "IC50": "> 100"}
    ]},
    {"molecular_target": "T2, Cannabinoid receptor 2", "experiment": "(§1) Agonist activity at human CB2 receptor expressed in CHO-K1 cells co-transfected with human Galpha16 assessed as intracellular calcium flux at 10 uM", "type": "functional, cell-based", "settings": "not given", "values": [
      {"smiles": "CCCCn1nc(C(=O)NC(C)(C)CO)cc1-c1cncs1", "Activity": "inactive"},
      {"smiles": "CCCCn1nc(C(=O)NC(C)(C)CO)cc1-c1ccn(C)c1", "Activity": "inactive"}
    ]},
    {"molecular_target": "T2, Cannabinoid receptor 2", "experiment": "as §1", "type": "functional, cell-based", "settings": "filed as agonist", "values": [
      {"smiles": "CC(C)(CO)NC(=O)c1cc(-c2cccs2)n(CC2CC2)n1", "Activity": "Active"},
      {"smiles": "COCCn1nc(C(=O)NC(C)(C)CO)cc1-c1cccs1", "Activity": "Active"}
    ]}
  ]
}
